As usually defined, the ΔTm is the shift of the melting midpoint relative to a reference. Broadly, the pIC50 is −log10 of the IC50, conventionally taken in molar units. Read a high pIC50 as a low IC50.

pIC50: −log10 of the molar value. Activity calls are given as the source filed them. The rule behind the calls is not given here.

Experiment [1] deals with T1, NAD-dependent protein deacetylase sirtuin-1 (Homo sapiens) (UniProt Q96EB6).
T1 sequence (whole entry): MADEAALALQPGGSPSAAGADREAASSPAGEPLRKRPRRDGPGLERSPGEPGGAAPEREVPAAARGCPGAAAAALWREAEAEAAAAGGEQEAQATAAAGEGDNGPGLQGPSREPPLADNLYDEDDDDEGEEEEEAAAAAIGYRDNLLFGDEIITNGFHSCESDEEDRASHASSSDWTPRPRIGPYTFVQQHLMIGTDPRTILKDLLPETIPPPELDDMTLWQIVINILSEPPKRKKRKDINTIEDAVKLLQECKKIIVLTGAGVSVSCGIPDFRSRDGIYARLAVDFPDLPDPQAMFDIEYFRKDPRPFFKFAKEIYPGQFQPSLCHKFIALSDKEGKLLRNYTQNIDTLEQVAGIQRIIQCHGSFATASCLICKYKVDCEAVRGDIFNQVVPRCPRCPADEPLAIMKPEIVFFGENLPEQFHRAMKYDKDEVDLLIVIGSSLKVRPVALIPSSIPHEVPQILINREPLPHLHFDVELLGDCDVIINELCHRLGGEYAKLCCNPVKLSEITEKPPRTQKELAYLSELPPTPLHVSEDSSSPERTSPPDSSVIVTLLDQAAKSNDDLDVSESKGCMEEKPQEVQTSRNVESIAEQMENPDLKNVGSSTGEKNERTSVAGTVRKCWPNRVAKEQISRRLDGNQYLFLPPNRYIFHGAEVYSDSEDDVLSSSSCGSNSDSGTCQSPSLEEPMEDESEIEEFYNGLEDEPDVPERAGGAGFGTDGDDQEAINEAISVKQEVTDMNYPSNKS
The conditions noted are these: dose 20.0 µM.
Description: Binding affinity to human recombinant truncated Sirtuin-1 expressed in Escherichia coli assessed as change in melting temperature at 20 uM by SYPRO orange dye based thermal shift assay

In experiment [2] the target is Carbonic anhydrase (Homo sapiens) (UniProt P00918+P43166+P00915+P07451+P23280+O43570+Q9ULX7+Q16790+P22748+Q8N1Q1+Q9Y2D0+P35218). As to the kind of experiment: Binding affinity to carbonic anhydrase (unknown origin) assessed as change in melting temperature incubated for 15 mins by Sypro orange staining based thermal scanning analysis. In kind it is protein assay. The conditions noted are these: dose 0.01-1000 µM.

In experiment [3] the target is T2, NAD-dependent protein deacetylase sirtuin-1 (Homo sapiens, UniProt Q96EB6).
T2 sequence (Q96EB6 whole entry): T1 sequence (whole entry)
As to the kind of experiment: Inhibition of Sirtuin-1 (unknown origin) incubated for 30 mins by luminogenic SIRT-Glo assay.

In the case of `NC(=O)c1ccc(N2CCN(C(c3ccccc3)c3ccccc3)CC2)c([N+](=O)[O-])c1`, the shift in melting temperature (ΔTm) in experiment [1] stood at 1 °C.
On the same count and under the same terms, then `O=C(CCc1ccccc1O)NCCc1c[nH]c2ccccc12`, with 12.9 °C.
Take `O=C(NCCc1c[nH]c2ccccc12)c1ccccc1O`: in experiment [1], the ΔTm worked out at 1.8 °C. For the same compound, the Activity result in experiment [2] was “Dose-Dependent Effect”. In addition, in experiment [3], the pIC50 was 5.47.
With `O=S(=O)(NCCc1c[nH]c2ccccc12)c1cc(Cl)cc(Cl)c1`, the ΔTm in experiment [1] was 1 °C.
For `O=C(Nc1ccccc1)Nc1ccc(NC(=O)c2ccc(Br)cc2)cc1`, in experiment [1], the ΔTm came out at 2.1 °C.
As for `O=C(CCc1c[nH]c2ccccc12)NNC(=O)CCc1c[nH]c2ccccc12`, the ΔTm in experiment [1] came to 2.8 °C.
Regarding `COc1ccc(N2CCN(c3nc(-c4ccccc4)nc4ccccc34)CC2)cc1`, the ΔTm in experiment [1] came out at 1.6 °C. Further, the result in experiment [2] was inactive. The compound further showed a negative-log IC50 (pIC50) in experiment [3] of 4.40.
